Reference: US20010044470A1, “METHOD TO CONTROL ANIMAL ECTO-PARASITES” (priority 1997, published 2001)
Values joined by “and” are separate entries in the source; they are usually repeats but may differ in a detail not shown here. Equal values may be shown once.

What was measured:
Assay type in all cases: in vivo
[1] = test system: cat fleas (Ctenocephalides felis); assay: Flea egg hatching after oral application to cats (systemic control); conditions: cat host, oral 20 mg/kg in cat feed
Procedure: Seven days after infestation, the weights of two cats of were measured and Compound #1 was applied orally to each of said two cats in an amount of 20 mg per one kilogram of the weight of the cat by incorporating Compound #1 into cat feed and having the cat to eat it. After application, the cats were placed in said steel cages.
(§1) The flea eggs collected onto the removable bottom tray were retrieved 6 and 14 days after the date of application. About 60 eggs were chosen from each batch of retrieved eggs. They were transferred to a plastic dish and then preserved under the conditions wherein the temperature was 26° C. and the humidity was at 90%. After 5-7 days of preservation, the eggs were observed about hatching.
The same procedure was repeated with another two cats except that cat feed comprising no Compound #1 was applied.
The percentages of hatching for applied cats “T” and the percentage of hatching for non-applied cats “C” were derived from the equation, respectively:
(§2) T=(the amount of hatched eggs)÷(the amount of retrieved eggs)×100
(§3) C=(the amount of hatched eggs)÷(the amount of retrieved eggs)×100
(§4) The obtained values of “T” and “C” were then used to determine the APH by employing the equation 1 mentioned above Example 1.

[2] = test system: cat fleas (Ctenocephalides felis); assay: Flea egg hatching after oral application to mouse (systemic control); conditions: mouse host, oral 20 mg/kg in corn oil; for adjusted percentage concerning the loss of hatchings (%) 5 days after: flea eggs retrieved 5 days after application; for adjusted percentage concerning the loss of hatchings (%) 14 days after: flea eggs retrieved 14 days after application; for adjusted percentage concerning the loss of hatchings (%) 30 days after: flea eggs retrieved 30 days after application
Procedure: By using an appropriate sonde for the mouse, oral application to the mouse was performed at the rate of about 10 mL of the composition per kilogram body weight of the mouse. The said mouse was then stabilized with a wire netting, and was placed in a plastic container (depth 15 cm×width 15 cm×height 60 cm). Thirty (10 male and 20 female) starved adult cat fleas (Ctenocephalides felis) were freed into the said plastic container and the produced f lea eggs were retrieved f ive days later. A suitable amount (about 60 eggs) was transferred to a plastic dish and, preserved under the conditions wherein the temperature was 26° C. and the humidity was at 90%. After 2 days of preservation, the hatching conditions were observed. Afterwards, the treated mouse was allowed to inhabit a standard pet cage with food and water. Ten days after the application, the mouse was stabilized, placed in a plastic container, and was exposed to cat fleas in the same way as stated above. The produced flea eggs were then retrieved 14 days after the application, preserved in the conditions stated above, and had the hatching conditions observed. Twenty-six days after the application, the mouse was stabilized, placed in a plastic container, and was exposed to cat fleas in the same way as stated above. The produced flea eggs were then retrieved 30 days after the application of the composition, preserved in the conditions stated above, and had the hatching conditions observed. The same procedure was repeated without the application of the composition. The percentages of hatching for applied mouse “T” and the percentage of hatching for non-applied mouse “C” were derived from the equation, respectively: T=(the amount of hatched eggs)÷(the amount of retrieved eggs)×100 C=(the amount of hatched eggs)÷(the amount of retrieved eggs)×100 The acquired values of “T” and “C” were used to determine the adjusted percentage concerning the loss of hatchings by employing equation 1. The acquired values of “T” and “C” were utilized in the following equation: The adjusted percentage concerning the loss of hatchings (%)=(C−T)÷C×100 to determine the adjusted percentage concerning the loss of hatchings (hereinafter, recited as APH). […] In other words, “APH” looks at the amount of eggs that were unable to hatch rather than the amount of eggs that were able to hatch.

[3] = test system: cat fleas (Ctenocephalides felis); assay: Flea egg hatching after oral application to dogs (systemic control); conditions: beagle dog host, oral 10 mg/kg in dog feed
Procedure: One day after infestation, the weights of three dogs were measured and Compound #1 was applied orally to each of said three dogs in an amount of 10 mg per one kilogram of the weight of the dog by incorporating Compound #1 into dog feed and having the dog to eat it. After application, the dogs were placed in said steel cages.
as §1, with “retrieved 4” for “retrieved 6”, “and 5” for “and 14”, “the” for “the date of”
The same procedure was repeated with another three dogs except that dog feed comprising no Compound #1 was applied. The percentages of hatching for applied dogs “T” and the percentage of hatching for non-applied dogs “C” were derived from the equation, respectively:
as §2, §3, §4

| SMILES | average APH after 6 days ([1]; flea eggs retrieved 6 days after application) [%] | average APH after 14 days ([1]; flea eggs retrieved 14 days after application, 20 mg/kg) | adjusted percentage concerning the loss of hatchings (%) 5 days after [2] [%] | adjusted percentage concerning the loss of hatchings (%) 14 days after [2] [%] | adjusted percentage concerning the loss of hatchings (%) 30 days after [2] [%] | average APH after 4 days ([3]; flea eggs retrieved 4 days after application) [%] | average APH after 5 days ([3]; flea eggs retrieved 5 days after application, 10 mg/kg) |
| --- | --- | --- | --- | --- | --- | --- | --- |
| O=C(NC(=O)c1c(F)cccc1F)Nc1ccc(OC(F)(F)C(F)C(F)(F)F)cc1F (stereo not drawn) [Compound #1, 1-(2,6-difluorobenzoyl)-3-[2-fluoro-4-(1,1,2,3,3,3-hexafluoropropoxy)phenyl]urea] | 81.9 | 79.6% and 80% | 100 | 100 | 93 | 86.5 | 76.6% and 77% |
| O=C(NC(=O)c1c(F)cccc1F)Nc1ccc(OC(F)(F)C(F)F)cc1 [Compound B, 1-(2,6-difluorobenzoyl)-3-[4-(1,1,2,2-tetrafluoroethoxy)phenyl]urea] | – | – | 83 | 0 | – | – | – |
| O=C(NC(=O)c1c(F)cccc1F)Nc1cccc(Oc2ncc(C(F)(F)F)cc2Cl)c1 [Compound C, 1-(2,6-difluorobenzoyl)-3-[3-(3-chloro-5-trifluoromethylpyridin-2-yloxy)phenyl]urea] | – | – | 96 | 77 | 11 | – | – |
